Measurements: patent publication US11013728B2, “Cyclin-dependent kinase 8 and/or 19 inhibitor” (Kyoto Pharmaceutical Industries, Ltd., priority 2017, dated 2021)

target: T1, CDK19 (Homo sapiens, UniProt Q9BWU1); experiment: CDK19 inhibitory activity, ELISA kinase assay; type: biochemical; details: at 1 μM of test compound; read-out: CDK19 inhibitory rate
T1 construct: purchased Carna Bioscience
Description: The test compound (compound (I)) dissolved in DMSO was diluted with an assay buffer (QSS Assist STK ELISA Kit (CDK8/CycC), Carna Bioscience) to give a primary dilution solution with a DMSO concentration of 40%. The above-mentioned primary dilution solution (10 μL) was dispensed in a streptavidin-coated 96 well plate, and an assay buffer mixture (10 μL) containing 500 nM substrate (Carna Bioscience), 10 mM MgCl2 (Carna Bioscience) and 100 μM ATP (Carna Bioscience) was added. After the above-mentioned addition, 10 μL of a kinase solution was added (1 ng/μL CDK8/CycC (Carna Bioscience) diluted with assay buffer is used for measurement of CDK8 inhibitory activity and for 5 ng/μL […] (Carna Bioscience) diluted with assay buffer is used for measurement of CDK19 inhibitory activity). After the above-mentioned addition, the mixture was stood in an incubator at 24-26° C. for 30 min. […] The reaction was quenched by adding a color developing reaction termination drug (Nacalai Tesque) (100 μL) to each well, and the absorbance (450 nm) was measured by a plate reader.
Using the absorbance of the test compound non-addition well as a control and the absorbance of the enzyme non-addition well as a blank, the CDK8 and CDK19 inhibitory rate was determined at 1 μM of each test compound.

T1 sequence (Q9BWU1 whole entry): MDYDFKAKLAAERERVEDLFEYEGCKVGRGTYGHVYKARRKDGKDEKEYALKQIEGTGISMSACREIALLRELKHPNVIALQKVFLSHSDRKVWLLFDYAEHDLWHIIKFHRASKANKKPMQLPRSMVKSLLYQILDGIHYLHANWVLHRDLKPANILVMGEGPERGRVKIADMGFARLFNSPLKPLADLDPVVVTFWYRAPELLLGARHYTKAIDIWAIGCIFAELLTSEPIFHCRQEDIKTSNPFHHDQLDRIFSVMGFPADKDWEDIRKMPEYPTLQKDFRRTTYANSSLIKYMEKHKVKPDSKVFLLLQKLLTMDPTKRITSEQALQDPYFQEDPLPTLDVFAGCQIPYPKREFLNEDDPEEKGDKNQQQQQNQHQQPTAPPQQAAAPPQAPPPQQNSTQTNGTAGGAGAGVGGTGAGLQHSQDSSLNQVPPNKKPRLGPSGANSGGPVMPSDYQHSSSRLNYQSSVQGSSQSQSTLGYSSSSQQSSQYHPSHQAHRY
T1 sequence (P24863 whole entry partner): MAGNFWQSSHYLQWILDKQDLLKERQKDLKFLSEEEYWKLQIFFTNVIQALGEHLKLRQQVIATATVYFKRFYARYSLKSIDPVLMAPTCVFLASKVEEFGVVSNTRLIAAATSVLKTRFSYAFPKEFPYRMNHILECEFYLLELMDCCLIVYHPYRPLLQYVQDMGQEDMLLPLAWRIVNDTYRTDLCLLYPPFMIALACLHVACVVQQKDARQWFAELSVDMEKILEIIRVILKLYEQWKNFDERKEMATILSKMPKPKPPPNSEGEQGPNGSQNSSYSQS

Question: With CC(=O)c1ccc(C(N)=O)cc1Oc1ccc(OCCOC2CCOCC2)cc1 [Compound 32, 4-acetyl-3-{4-[2-(tetrahydropyran-4-yloxy)ethoxy]phenoxy}benzamide] as the compound, how does the inhibition at 1 µM read?
Answer: Its inhibition at 1 µM is no less than 90%.

Question: With C[C@@H](O)c1ccc(C(N)=O)cc1Oc1ccc(OCCOC2CCOCC2)cc1 [Compound 43] as the compound, how does the inhibition at 1 µM read?
Answer: The inhibition at 1 µM was no less than 90%.

system: 39 kinds of serine/threonine kinase; experiment: Off-chip Mobility Shift Assay (MSA), serine/threonine kinase panel; type: biochemical; details: test compound 1 μM; 39 kinases listed in b243 (AKT1 ... TSSK1, incl. CDK2, 3, 4, 5, 6, 7, 9)
Description: The action of compound (I) of the present invention on serine/threonine kinase activity was examined by Off-chip Mobility Shift Assay (MSA). The method is shown below.
The action of a test compound (1 μM) on 39 kinds of serine/threonine kinase activity was examined. A solution of 4-fold concentration of compound 32 (5 μL) prepared by using an assay buffer (20 mM HEPES, 0.01% Triton X-100, 2 mM DTT, pH 7.5), a substrate/ATP/metal solution (5 μL) and a kinase […] solution (10 μL) were mixed in a well of a polypropylene 384 well plate and the mixture was reacted at room temperature for 1 or 5 hr. The reaction was discontinued by adding 70 μL of Termination Buffer (Carna Biosciences). The substrate peptide and phosphorylated peptide in the reaction solution were separated and quantified by LabChip System (Perkin Elmer).
The kinase reaction was evaluated based on a resultant product ratio (P/(P+S)) calculated from substrate peptide peak height (S) and phosphorylated peptide peak height (P).

Question: For CC(=O)c1ccc(C(N)=O)cc1Oc1ccc(OCCOC2CCOCC2)cc1 [Compound 32, 4-acetyl-3-{4-[2-(tetrahydropyran-4-yloxy)ethoxy]phenoxy}benzamide], which “action on serine/threonine kinase activity” value is on record?
Answer: Its value is “did not affect”.

system: human acute myeloid leukemia MV4; 11; experiment: MV4;11 cell proliferation inhibitory activity (CellTiter 96 Aqueous One); type: cell-based; details: 72 h, MV4;11 cells, cultured 3 days, read-out: cell proliferation inhibitory rate
Description: The human acute myeloid leukemia MV4; 11 cell proliferation inhibitory activity of compound (I) of the present invention was evaluated by the following method.
A cell suspension (100 μL, 10,000 cells/well) of human acute myeloid leukemia MV4; 11 (purchased from American Type Culture Collection) was seeded on a 96 well plate and cultured in a 5% carbon dioxide gas incubator at 37° C. for one day. After the above-mentioned culture, each test compound (compound (I)) was added to a concentration of 1 μM and the mixture was further cultured for 3 days. After the above-mentioned culture, 40 μL of CellTiter 96 (registered trade mark) Aqueous One Solution Cell Proliferation Assay (Promega KK) was added to the 96 well-plate, the mixture was reacted for 3 hr, and the absorbance (490 nm) was measured by a plate reader.
Using the absorbance of the test compound non-addition well as a control and the absorbance of the cell non-seeded well as a blank, the cell proliferation inhibitory rate was determined at 1 μM of each test compound.

Question: Which inhibition at 1 µM does the source give for NC(=O)c1ccc([N+](=O)[O-])c(Nc2ccc(N3CC(OCCO)C3)cc2)c1 [Compound 5, 3-{4-[3-(2-hydroxyethoxy)azetidin-1-yl]phenylamino}-4-nitrobenzamide] here?
Answer: The inhibition at 1 µM was no less than 50%.

Question: For CC(=O)c1ccc(C(N)=O)cc1Oc1ccc(N2CC(OCCO)C2)cc1 [Compound 28, 4-acetyl-3-{4-[3-(2-hydroxyethoxy)azetidin-1-yl]phenoxy}benzamide], which inhibition at 1 µM is on record?
Answer: Its inhibition at 1 µM is no less than 50%.

Question: Which inhibition at 1 µM does the source give for CC(=O)c1ccc(C(N)=O)cc1Oc1ccc(OCCOC2CCOCC2)cc1 [Compound 32, 4-acetyl-3-{4-[2-(tetrahydropyran-4-yloxy)ethoxy]phenoxy}benzamide] here?
Answer: Its inhibition at 1 µM is no less than 50%.

Question: For CC(=O)c1ccc(C(N)=O)cc1Oc1ccc(OCCOCCOC(C)C)cc1 [Compound 33, 4-acetyl-3-{4-[2-(2-isopropoxyethoxy)ethoxy]phenoxy}benzamide], which inhibition at 1 µM is on record?
Answer: The inhibition at 1 µM was no less than 50%.

Question: For CNC(=O)c1ccc([N+](=O)[O-])c(Nc2ccc(N3CC(OCCO)C3)cc2)c1 [Compound 48, 3-{4-[3-(2-hydroxyethoxy)azetidin-1-yl]phenylamino}-N-methyl-4-nitrobenzamide], which inhibition at 1 µM is on record?
Answer: The inhibition at 1 µM was no less than 50%.

Question: With NC(=O)c1ccc([N+](=O)[O-])c(Nc2ccc(OCCOC3CCOCC3)cc2)c1 [Compound 50, 4-nitro-3-{4-[2-(tetrahydropyran-4-yloxy)ethoxy]phenylamino}benzamide] as the compound, how does the inhibition at 1 µM read?
Answer: The inhibition at 1 µM was no less than 50%.

Question: With NC(=O)c1ccc(C(F)(F)F)c(Oc2ccc(OCCOC3CCOCC3)cc2)c1 [Compound 64, 3-{4-[2-(tetrahydropyran-4-yloxy)ethoxy]phenoxy}-4-trifluoromethylbenzamide] as the compound, how does the inhibition at 1 µM read?
Answer: The inhibition at 1 µM was no less than 50%.

Question: Which inhibition at 1 µM does the source give for CC(=O)c1ccc(C(N)=O)cc1Oc1ccc(OCCOC2CCOC2)cc1 (stereo not shown) [Compound 67, 4-acetyl-3-{4-[2-(tetrahydrofuran-3-yloxy)ethoxy]phenoxy}benzamide] here?
Answer: Its inhibition at 1 µM is no less than 50%.

Question: For C=C(F)c1ccc(C(N)=O)cc1Oc1ccc(OCCOC2CCOCC2)cc1 [Compound 84, 4-(1-fluorovinyl)-3-{4-[2-(tetrahydropyran-4-yloxy)ethoxy]phenoxy}benzamide], which inhibition at 1 µM is on record?
Answer: The inhibition at 1 µM was no less than 50%.

system: various cancer cells; experiment: not given; details: reported in non-patent document 3; remarkable effects on leukemia cells; cited from earlier work

Question: Which “proliferation of various cancer cells” value does the source give for Cortistatin A here?
Answer: Its value is “suppresses proliferation”.
